According to patent US8426409B2, “Inhibitors of Bruton's tyrosine kinase” (Roche Palo Alto LLC, priority 2008, dated 2013):

Molecular target: T1, Btk enzyme (His-tagged, full-length) (Homo sapiens, UniProt Q06187)
T1 construct: 5-10 nM Btk enzyme (His-tagged, full-length); His
Experiment: Bruton's Tyrosine Kinase (Btk) Inhibition Assay (33P filtration capture)
Type: biochemical
Conditions: 100 μM ATP, 30 μM biotinylated peptide substrate, 30 min at 30° C.
Excerpt: The assay is a capture of radioactive ^33P phosphorylated product through filtration. The interactions of Btk, biotinylated SH2 peptide substrate (Src homology), and ATP lead to phosphorylation of the peptide substrate. Biotinylated product is bound streptavidin sepharose beads. All bound, radiolabeled products are detected by scintillation counter.
Plates assayed are 96-well polypropylene (Greiner) and 96-well 1.2 μm hydrophilic PVDF filter plates (Millipore). Concentrations reported here are final assay concentrations: 10-100 μM compounds in DMSO (Burdick and Jackson), 5-10 nM Btk enzyme (His-tagged, full-length), 30 μM peptide substrate (Biotin-Aca-AAAEEIYGEI-NH2), 100 μM ATP (Sigma), 8 mM imidazole (Sigma, pH 7.2), 8 mM glycerol-2-phosphate (Sigma), 200 μM EGTA (Roche Diagnostics), 1 mM MnCl2 (Sigma), 20 mM MgCl2 (Sigma), 0.1 mg/ml BSA (Sigma), 2 mM DTT (Sigma), 1 μCi ^33P ATP (Amersham), 20% streptavidin sepharose beads (Amersham), 50 mM EDTA (Gibco), 2 M NaCl (Gibco), 2 M NaCl w/1% phosphoric acid (Gibco), microscint-20 (Perkin Elmer).
IC50 determinations are calculated from 10 data points per compound utilizing data produced from a standard 96-well plate assay template. […] Background was counted in the absence of peptide substrate. Total activity was determined in the presence of peptide substrate. […]

T1 sequence (Q06187 whole entry): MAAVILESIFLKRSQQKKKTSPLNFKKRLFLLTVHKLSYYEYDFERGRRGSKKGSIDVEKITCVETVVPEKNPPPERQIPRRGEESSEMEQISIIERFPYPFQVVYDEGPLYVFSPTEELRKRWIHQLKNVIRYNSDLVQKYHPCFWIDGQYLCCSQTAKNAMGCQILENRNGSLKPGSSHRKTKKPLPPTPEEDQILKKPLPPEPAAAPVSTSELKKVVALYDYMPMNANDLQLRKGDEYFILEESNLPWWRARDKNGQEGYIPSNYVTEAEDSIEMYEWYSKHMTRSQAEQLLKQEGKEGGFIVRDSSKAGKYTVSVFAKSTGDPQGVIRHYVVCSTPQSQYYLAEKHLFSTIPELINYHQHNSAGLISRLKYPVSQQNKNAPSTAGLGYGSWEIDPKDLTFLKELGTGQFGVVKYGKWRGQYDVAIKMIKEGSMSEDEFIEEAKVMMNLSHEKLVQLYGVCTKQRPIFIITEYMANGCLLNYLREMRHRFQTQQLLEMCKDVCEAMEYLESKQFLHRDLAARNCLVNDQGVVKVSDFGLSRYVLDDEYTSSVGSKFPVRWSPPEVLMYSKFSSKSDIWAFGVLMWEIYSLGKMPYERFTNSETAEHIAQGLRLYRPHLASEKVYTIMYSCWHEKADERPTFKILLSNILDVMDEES

SMILES	IC50 [nM]
O=C1c2ccc(C3CC3)cc2CCN1c1cccc(-c2cn3ccnc3c(Nc3ccc(CN4CCOCC4)cc3)n2)c1CO [II-2, 6-Cyclopropyl-2-{2-hydroxymethyl-3-[8-(4-morpholin-4-ylmethyl-phenylamino)-imidazo[1,2-a]pyrazin-6-yl]-phenyl}-3,4-dihydro-2H-isoquinolin-1-one]	37
O=C(c1ccc(Nc2nc(-c3cccc(N4CCc5cc(C6CC6)ccc5C4=O)c3CO)cn3ccnc23)cc1)N1CCOCC1 [II-1, 6-Cyclopropyl-2-(2-hydroxymethyl-3-{8-[4-(morpholine-4-carbonyl)-phenylamino]-imidazo[1,2-a]pyrazin-6-yl}-phenyl)-3,4-dihydro-2H-isoquinolin-1-one]	25
